pIC50: −log10 of the molar value.
Assays:
MDA-MB-231/ATCC = type: cell-based; settings: MDA-MB-231/ATCC
U251 = type: cell-based; settings: U251, five dose
OVCAR-4 = type: cell-based; settings: OVCAR-4
SK-OV-3 = type: cell-based; settings: SK-OV-3
HCT-116 = type: cell-based; settings: HCT-116
SK-MEL-2 = type: cell-based; settings: SK-Mel-2, five dose
TOP I (Topoisomerase I) [1] = biological target: T1, TOP I (Topoisomerase I) (Homo sapiens, UniProt P11387); experiment: TOP I mediated supercoiled DNA relaxation assay; type: biochemical; settings: primary assay at 25 and/or 50 μM
T1 construct: purchased TopoGEN TG2005H
T1 sequence (P11387 1-765): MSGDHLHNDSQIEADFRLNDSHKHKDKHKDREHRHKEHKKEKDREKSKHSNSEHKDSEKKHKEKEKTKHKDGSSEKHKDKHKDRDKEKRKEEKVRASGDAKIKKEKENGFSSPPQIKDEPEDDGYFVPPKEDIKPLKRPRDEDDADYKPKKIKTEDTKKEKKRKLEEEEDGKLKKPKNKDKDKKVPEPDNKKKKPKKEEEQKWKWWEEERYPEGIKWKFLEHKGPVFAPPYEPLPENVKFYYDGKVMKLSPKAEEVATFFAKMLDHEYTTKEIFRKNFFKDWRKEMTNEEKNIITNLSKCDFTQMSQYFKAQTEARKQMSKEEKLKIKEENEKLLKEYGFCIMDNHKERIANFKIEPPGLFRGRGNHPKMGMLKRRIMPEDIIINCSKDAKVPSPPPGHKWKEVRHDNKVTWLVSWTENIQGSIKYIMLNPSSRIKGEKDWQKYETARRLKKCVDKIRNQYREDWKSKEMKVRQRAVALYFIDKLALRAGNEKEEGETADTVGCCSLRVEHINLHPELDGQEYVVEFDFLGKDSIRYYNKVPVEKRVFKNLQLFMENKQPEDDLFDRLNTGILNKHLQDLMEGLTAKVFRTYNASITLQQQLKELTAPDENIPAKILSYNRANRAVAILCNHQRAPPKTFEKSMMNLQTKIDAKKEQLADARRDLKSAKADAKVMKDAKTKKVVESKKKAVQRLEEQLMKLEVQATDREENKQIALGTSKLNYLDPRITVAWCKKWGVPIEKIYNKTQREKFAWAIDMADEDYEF
Protocol: According to the cell cytotoxicity, compounds 5, 7, 8, 16, 19, N2, N7, N8, N9, N14-N19, and N25 were also selected for primary TOP I and II activities assays at 25 and/or 50 μM (FIG. 2-4).

HOP-62 = type: cell-based; settings: HOP-62
SF-268 = type: cell-based; settings: SF-268
SF-539 = type: cell-based; settings: SF-539
SK-MEL-5 = type: cell-based; settings: SK-MEL-5
IGROV1 = type: cell-based; settings: IGROV1
HOP-92 = type: cell-based; settings: HOP-92, five dose
KM12 = experiment: cells; type: cell-based; settings: KM12
NCI/ADR-RES = type: cell-based; settings: NCI/ADR-RES
NCI-H226 = type: cell-based; settings: NCI-H226
CAKI-1 = type: cell-based; settings: CAKI-1
ACHN = type: cell-based; settings: ACHN
HCC-2998 = type: cell-based; settings: HCC-2998
UACC-257 = type: cell-based; settings: UACC-257
TOP I (Topoisomerase I) [2] = biological target: T1, TOP I (Topoisomerase I); experiment: TOP I mediated supercoiled DNA relaxation assay; type: biochemical; settings: five different concentrations; TopoGEN TG2005H, TG-2000H-1
OVCAR-3 = type: cell-based; settings: OVCAR-3; 10^−5 molar
[3] = Homo sapiens, five dose, read-out: LC50 (the source's name)

Q: What does the source list for `O=c1c2cc(Cl)ccc2sc2c(NCc3ccccc3)nc3ccccc3c12` [Compound N25, 6-(Benzylamino)-10-chloro-12H-thiochromeno[2,3-c]quinolin-12-one]?
A: GI50 (MDA-MB-231/ATCC; Homo sapiens, five dose): 2.36 µM; CC50 (MDA-MB-231/ATCC; [3]): > 100 µM; Growth percent (MDA-MB-231/ATCC; 10^−5 molar): 32.67%; TGI (MDA-MB-231/ATCC; five dose): 34.80 µM; GI50 (U251; Homo sapiens, U-251): 4.41 µM; LC50 (U251; Homo sapiens, U-251): > 100 µM; TGI (U251): 25.10 µM; GI50 (OVCAR-4; Homo sapiens, five dose): 15 µM; Growth percent (OVCAR-4; 10^−5 molar): 27.24%; TGI (OVCAR-4; five dose): 3.74 µM; GI50 (SK-OV-3; Homo sapiens, five dose): 3.56 µM; CC50 (SK-OV-3; [3]): > 100 µM; Growth percent (SK-OV-3; 10^−5 molar): 36.71%; TGI (SK-OV-3; five dose): 13.90 µM; Growth percent (HCT-116; 10^−5 molar): 66.87%; TGI (HCT-116; five dose): >100 µM; GI50 (HCT-116; Homo sapiens, five dose): 5.59 µM; LC50 (concentration killing 50% of cells) (HCT-116; Homo sapiens, five dose): > 100 µM; GI50 (SK-MEL-2; Homo sapiens): 10.6 µM; LC50 (SK-MEL-2; Homo sapiens): 96.5 µM; TGI (SK-MEL-2): 31.90 µM; inhibitory effect in TOP I activity assay compared with CPT (TOP I (Topoisomerase I) [1]): more potent inhibitory effects than CPT; Growth percent (HOP-62; 10^−5 molar): 66.53%; TGI (HOP-62; five dose): 5.92 µM; GI50 (HOP-62; Homo sapiens, five dose): 2.43 µM; LC50 (lethal concentration 50) (HOP-62; Homo sapiens, five dose): 27.7 µM; GI50 (SF-268; Homo sapiens, five dose): 13.8 µM; CC50 (SF-268; [3]): > 100 µM; Growth percent (SF-268; 10^−5 molar): 73.68%; TGI (SF-268; five dose): >100 µM; GI50 (SF-539; Homo sapiens, five dose): 4.49 µM; LC50 (SF-539; Homo sapiens, five dose): > 100 µM; Growth percent (SF-539; 10^−5 molar): 80.59%; TGI (SF-539; five dose): 46.40 µM; GI50 (SK-MEL-5; Homo sapiens, five dose): 4.23 µM; LC50 (SK-MEL-5; Homo sapiens, five dose): > 100 µM; Growth percent (SK-MEL-5; 10^−5 molar): 92.81%; TGI (SK-MEL-5; five dose): >100 µM; GI50 (IGROV1; Homo sapiens, IGROV-1, five dose): 4.64 µM; CC50 (IGROV1; Homo sapiens, IGROV-1, five dose, read-out: LC50 (the source's name)): > 100 µM; Growth percent (IGROV1; 10^−5 molar): 53.42%; TGI (IGROV1; five dose): >100 µM; TGI (HOP-92): 7.53 µM; GI50 (HOP-92; Homo sapiens): 1.75 µM; LC50 (HOP-92; Homo sapiens): 53.6 µM; GI50 (KM12; Homo sapiens, five dose): 48.3 µM; LC50 (KM12; Homo sapiens, five dose): > 100 µM; Growth percent (KM12; 10^−5 molar): 80.34%; TGI (KM12; five dose): >100 µM; GI50 (NCI/ADR-RES; Homo sapiens, five dose): 43 µM; CC50 (NCI/ADR-RES; [3]): > 100 µM; Growth percent (NCI/ADR-RES; 10^−5 molar): 77.36%; TGI (NCI/ADR-RES; five dose): >100 µM; GI50 (NCI-H226; Homo sapiens, five dose): 1.84 µM; LC50 (concentration giving 50% net cell kill) (NCI-H226; Homo sapiens, five dose): > 100 µM; Growth percent (NCI-H226; 10^−5 molar): 79.35%; Growth percent (CAKI-1; 10^−5 molar): 80.38%; TGI (CAKI-1; five dose): >100 µM; GI50 (CAKI-1; Homo sapiens, five dose): 6.07 µM; CC50 (CAKI-1; [3]): > 100 µM; Growth percent (ACHN; 10^−5 molar): 51.82%; TGI (ACHN; five dose): >100 µM; GI50 (ACHN; Homo sapiens, five dose): 4.02 µM; CC50 (ACHN; [3]): > 100 µM; Growth percent (HCC-2998; 10^−5 molar): 95.77%; TGI (HCC-2998; five dose): >100 µM; GI50 (HCC-2998; Homo sapiens, five dose): > 100 µM; LC50 (HCC-2998; Homo sapiens, five dose): > 100 µM; GI50 (UACC-257; Homo sapiens, five dose): > 100 µM; CC50 (UACC-257; [3]): > 100 µM; Growth percent (UACC-257; 10^−5 molar): 83.24%; TGI (UACC-257; five dose): >100 µM; pIC50 (TOP I (Topoisomerase I) [2]): ~4.60; Growth percent (OVCAR-3): 76.59%
